Reference: US11976038B1 (priority 2023, dated 2024)
Where two headings read alike, the source gives them in different places. Blank lines part the entries; values can stand above or below the compound they belong to.

Tests used:
[1] = corn oil, 200 ppm; for Acid value / Conjugated diene value / Peroxide value: 60° C., after 6 days; for Conjugated diene value: absorbance 232 nm
[2] = corn oil, 200 ppm, oxidation induction time at 20° C. calculated from 100-130° C.
[3] = type: physicochemical
Description: An appropriate amount of pure product of Embodiment 1 (about 50 mg) was weighed into a small aluminium box, and the weight of the sample was recorded after equilibration. For a thermogravimetric equipment, the temperature was selected to be 0° C. to 500° C., the heating rate to be 20° C./min, and the nitrogen flow rate to be 100 mL/min, and a thermogravimetric change curve was recorded. The initial reaction temperature was 300° C. according to a baseline extrapolation method. […] Curves A and B in FIG. 2 represent the rate of mass change and the mass change with increasing temperature, respectively.

[4] = background statement; cited from earlier work
[5] = background statement; cited from earlier work; remark: listed apart in the source
[6] = listed as Pure product of Comparative Example 5
[7] = listed as Pure product of Comparative Example 4

Compound: resveratrol conjugated linoleate [Comparative Example 5]
- Acid value [1]: 0.60 mgKOH/g
- Conjugated diene value [1, 6]: 3.65
- Peroxide value [1, 6]: 27.5 meq/kg
- Shelf life [2, 6]: 71.3 days

- initial reaction temperature (thermal stability temperature) [3]: 300 °C
Compound: resveratrol nervonic acid ester [Embodiment 1]
- antioxidant activity (DPPH radical scavenging activity) (10 mg in 1 mL 80% methanol, 30 min dark, 517 nm): 90.00%
- antioxidant activity relative to resveratrol (DPPH, ratio to resveratrol): 1.03 times
- acid value versus resveratrol and blank control (FIG. 4) ([1]; 60° C., 0, 1, 3, 6 days): basically lower than those of resveratrol and blank control
- conjugated diene value versus resveratrol and blank control (FIG. 5) ([1]; 60° C., 0, 1, 3, 6 days): basically lower than those of resveratrol and blank control
- peroxide value versus resveratrol and blank control (FIG. 3) ([1]; 60° C., 0, 1, 3, 6 days): basically lower than those of resveratrol and blank control
- Acid value [1]: 0.55 mgKOH/g
- Peroxide value [1]: 26.5 meq/kg
- Conjugated diene value [1]: 3.33
- Shelf life [2]: 78.2 days

- initial reaction temperature (thermal stability temperature) [3]: 290 °C
Compound: Oc1ccc(C=Cc2cc(O)cc(O)c2)cc1 [Resveratrol, 3, 4′, 5-trihydroxystilbene]
- oral bioavailability [4]: < 1%
- solubility in oil [5]: 0.98 µg/g

Compound: resveratrol conjugated linoleate [Comparative Example 4]
- Conjugated diene value [1, 7]: 3.60
- Peroxide value [1, 7]: 27 meq/kg
- Shelf life [2, 7]: 71.4 days
